The text below walks through data of ChEMBL document CHEMBL6153140, “Pestones A and B from a Fungus Pestalotiopsis sp. Bound to Mutant p53 and Changed Its Conformation” (J Nat Prod, 2025).

The source made the active and inactive calls. No cut-off for these calls is given here.

The nature of data set [1]: Cytotoxicity against human SAOS-2 cells harboring p53 […] mutant incubated for 3 days by MTT assay. Format: functional, cell-based. The settings on record: SAOS-2, 72 h. (In general: Tetrazolium assays rely on reduction of a dye to a coloured formazan, in cell work by metabolically active cells.)
Data set [2] deals with SAOS-2. Nature of the data set: Effect on conformation of p53 […] mutant in human SAOS-2 cells at 2 uM incubated for 6 hrs by Hoechst 33342 staining based immunofluorescence analysis. It is filed as functional, cell-based.
Data set [3] deals with SAOS-2. Nature of the data set: Effect on conformation of p53 […] mutant in human SAOS-2 cells at 100 uM incubated for 6 hrs by Hoechst 33342 staining based immunofluorescence analysis. It is filed as functional, cell-based.
Data set [4] deals with SAOS-2. Description: Binding affinity to p53 […] mutant in human SAOS-2 cells assessed as thermal stabilization at 5 uM at 40 to 43 degreeC incubated for 1 hr by CETSA based Western blot analysis. It is filed as cell-based. On the technique in general: In western blotting, separated proteins are transferred to a membrane and probed.
Data set [5] is described as follows: Induction of apoptosis in human SAOS-2 cells harboring p53 […] mutant assessed as viable cells at 4 uM incubated for 24 hrs by Annexin V-FITC/PI staining based flow cytometric analysis (reference value: 94.3%). It is filed as functional. The settings on record: read-out: Activity. For orientation: Flow cytometry measures light scatter and fluorescence of single cells or particles in a stream.

Data set [6] can be described thus: Induction of apoptosis in human SAOS-2 cells harboring p53 […] mutant assessed as early apoptotic cells at 4 uM incubated for 24 hrs by Annexin V-FITC/PI staining based flow cytometric analysis (reference value: 4.1%). Format: functional.
Data set [7] can be described thus: Induction of apoptosis in human SAOS-2 cells harboring p53 […] mutant assessed as late apoptotic cells at 4 uM incubated for 24 hrs by Annexin V-FITC/PI staining based flow cytometric analysis (reference value: 1.2%). Format: functional.
Data set [8] can be described thus: Induction of apoptosis in human SAOS-2 cells harboring p53 […] mutant assessed as necrotic cells at 4 uM incubated for 24 hrs by Annexin V-FITC/PI staining based flow cytometric analysis (reference value: 0.4%). Format: functional.
A short description of data set [9]: Induction of apoptosis in human SAOS-2 cells harboring p53 […] mutant assessed as fold increase in early apoptotic cells at 4 uM incubated for 24 hrs by Annexin V-FITC/PI staining based flow cytometric analysis. Format: functional.
A short description of data set [10]: Induction of apoptosis in human SAOS-2 cells harboring p53 […] mutant assessed as fold increase in late apoptotic cells at 4 uM incubated for 24 hrs by Annexin V-FITC/PI staining based flow cytometric analysis. Format: functional.
Another data set relates to HuCCT-1. Nature of the data set: Antitumor activity against human HuCCT-1 cells harboring p53 […] mutant xenografted in male BALB/c Slc-nu/nu mouse model assessed as reduction in tumor volume administered IT(Intratumoral) every other day and measured on day 13 (reference value: 56 to 98 mm3). Format: functional. Conditions: time 13 day.
Data set [11] is described as follows: Toxicity in male BALB/c Slc-nu/nu mouse assessed as effect on body weight loss administered IT(Intratumoral) every other day and measured after 13 days. Conditions: in vivo, 312 h, time 13 day.

Consider `C/C=C/C1=C(CO)C(=O)[C@@H]2O[C@]2([C@H](O)C=C(C)C)C1=O`, for which the IC50 (commonly the midpoint of a concentration-inhibition curve) in data set [1] came out at 920 nM.

`CC(C)=C[C@@H](O)[C@]12O[C@H]1C(=O)C1=C(C2=O)C2[C@H](C)OC1[C@]13C(=O)[C@@]4([C@H](O)C=C(C)C)O[C@H]4C(=O)C1=CO[C@@H](C)[C@H]23` (some centres not stated): the result with SAOS-2 [2] was Active. The compound also registered an IC50 in [1] of 1100 nM.

Consider `CC(C)=C[C@@H](O)[C@]12O[C@H]1[C@H](O)C1=C(C2=O)C2C(C)OC1[C@]13C(=O)[C@@]4([C@H](O)C=C(C)C)O[C@H]4[C@H](O)C1=CO[C@@H](C)[C@H]23` (some centres not stated), for which the half-maximal inhibitory concentration (IC50) in data set [1] is greater than 20000 nM.

Turning to `C/C=C/C1=C(CO)[C@@H](O)[C@@H]2O[C@]2([C@H](O)C=C(C)C)C1=O`, the outcome with SAOS-2 [3] was inactive. Also, in data set [1], the concentration for half-maximal inhibition (IC50) is greater than 20000 nM.

Regarding `CC(C)=C[C@@H](O)[C@]12O[C@H]1C(=O)C1=C(C2=O)C2[C@@H]3[C@@H](C)OC=C4C(=O)[C@@H]5O[C@]5([C@H](O)C=C(C)C)C(=O)[C@]43C1O[C@@H]2C` (some centres not stated), the result in the data set with SAOS-2 [2] and in the data set on SAOS-2 [4] was Active. Moreover, the half-inhibitory concentration (IC50) in data set [1] was 1000 nM. Moreover, in data set [5], the viability at 4 µM worked out at 80%. The Activity in data set [6] is given as 13.6%; in data set [7] it was 5.7%; in data set [8] it was 0.7%; with HuCCT-1, 140 mm3; in data set [11] it was “Non-toxic”. Besides, the figures for the “fold change (FC)” value in data set [9] and in data set [10] were 3.3 and 4.8, respectively.
